# Data reported in PMC9804084, “Multiple drug transporters contribute to the brain transfer of levofloxacin” (CNS Neuroscience & Therapeutics, 2022).
# Where two headings read alike, the source gives them in different places.
# Experiments:
# [1] = system: Multidrug resistance-associated proteins (MRPs); experiment: In vivo microdialysis pharmacokinetics of LVFX with MRPs inhibitor MK571; set-up: species or system rat; settings: for increase of AUC0–180 / increase of C max: treatment with MK571 vs control group; for Kp / MRT / half-life / Tmax / AUC(0-inf) / Cmax / AUC(0-t): rat, intravenous; for Kp: with MK571 20 mg/kg intraperitoneally; for MRT / half-life / Tmax / AUC(0-inf) / Cmax / AUC(0-t): with MK571 20 mg/kg i.p.; for MRT / half-life / AUC(0-inf) / Cmax / AUC(0-t): mean ± SD; for AUC(0-t): read-out: AUC0–180 (converted)
# Procedure: (§1) On the day of surgery, rats were anesthetized using inhaled isoflurane via a facemask. The rats were placed in a stereotaxic frame (Gene&I), and the body temperature was maintained with a homoeothermic blanket set at 37°C. A midline incision was made to expose the skull. According to the Paxinos and Watson atlas, two microdialysis intracerebral guide cannulae (Eicom Co.) were implanted into the hippocampus CA1 region (Hp‐CA1 coordinates: AP −4.16 mm; ML −2.2 mm; DV −2.9 mm) and lateral ventricle (LV coordinates: AP −1.4 mm; ML +2.2 mm; DV −3.4 mm). Fixed to the skull using a screw and dental cement. After 3 days of recovery, the rats were anesthetized with isoflurane again. An intravascular probe (TP‐100‐20; 20 mm, Eicom Co.) was implanted into the jugular vein toward the right atrium. After the blood microdialysis probe was positioned within the jugular vein, the pipeline was connected to perfuse with ACD solution (citric acid 3.5 mM; sodium citrate 7.5 mM; dextrose 13.6 mM) at a flow rate of […], and the Hamilton microinjection pump was used for continuous perfusion. After stopping isoflurane inhalation, the rats were allowed to wake up naturally on the homoeothermic blanket. The awake rats were placed in a device that allowed them to move freely. Animals were allowed to recover for an additional 24 h.
# (§2) All microdialysate concentrations (C m) from the hippocampal ECF and lateral ventricle CSF were converted to the unbound drug concentration (C u) at the target site using the following formula: C u = C m/R dial.
# (§3) A total of 32 rats were randomly divided into the following groups: • Control group, N = 12: vehicle solution + LVFX (50 mg/kg). • TAR group, N = 5: Tariquidar (8 mg/kg) + LVFX (50 mg/kg). • Ko143 group, N = 5: Ko143 (15 mg/kg) + LVFX (50 mg/kg). • MK571 group, N = 5: MK571 (20 mg/kg) + LVFX (50 mg/kg). • PRO group, N = 5: Probenecid (50 mg/kg) + LVFX (50 mg/kg).
# (§4) Levofloxacin was freshly dissolved in isotonic saline and administered via tail vein injection. Thirty minutes before LVFX administration, the intervention drugs of each group were injected intraperitoneally. To reduce the possible effect of solvents on BBB or BCSFB permeability of LVFX, we prioritized water as the solvent. However, Tariquidar and Ko143 are insoluble in water, and a cosolvent must be used to prepare agents that animals can tolerate. According to the different physicochemical properties of these four inhibitors, the preparation of each transporter inhibitor solution in this experiment was as follows. • P‐glycoprotein (P‐gp) inhibitor Tariquidar[22]: Tariquidar was freshly dissolved in DMSO to 8 mg/ml and then diluted to 4 mg/ml with a solution containing 10% Tween‐80, 25% PEG300, and 65% sterile water. • Breast cancer resistance protein (BCRP) inhibitor Ko143[23]: Ko143 was freshly dissolved in DMSO to 15 mg/ml and then diluted to 7.5 mg/ml with a solution containing 10% Tween‐80, 25% PEG300, and 65% sterile water. • Multidrug resistance‐associated proteins (MRPs) inhibitor MK571[24]: MK571 sodium salt hydrate was dissolved in 1.25% (w/v) aq sodium hydrogen carbonate (NaHCO3) solution to obtain a concentration of 10 mg/ml. • Organic anion transporters (OATs) inhibitor probenecid[25]: Probenecid was dissolved in NaOH (pH = 9.0–9.2) alkalized physiological saline to obtain a concentration of 25 mg/ml.
# (§5) The pipelines where the blood and brain probes were installed were perfused at the speed of 2 μl/min with ACD solution and ACSF, respectively. Two brain probes were inserted into guide cannulas of the target site and allowed to equilibrate for 1 h. Subsequently, the rats were treated according to their corresponding groups in the device where they could move freely. Microdialyses samples were collected every 15 min using a fraction collector (EFC‐96, Eicom Co.) for 3 h and stored at 4°C until analysis. Finally, rats were anesthetized and decapitated, and their brain was harvested.
# P-glycoprotein (P-gp) = experiment: In vivo microdialysis pharmacokinetics of LVFX with P-gp inhibitor Tariquidar; set-up: species or system rat; settings: for MRT / Tmax / AUC(0-inf) / Cmax / half-life / AUC(0-t) / Kp: rat, intravenous, with Tariquidar 8 mg/kg i.p., TAR group, Tariquidar 8 mg/kg i.p. + LVFX 50 mg/kg, N=5; for MRT / AUC(0-inf) / Cmax / half-life / AUC(0-t): mean ± SD; for AUC(0-t): read-out: AUC0–180 (converted)
# Procedure: as §1, §2, §3, §4, §5
# [2] = MK571 intervention vs control group
# [3] = CSF (lateral ventricle microdialysate, unbound), 30 min before LVFX, CSF, MK571 group, MK571 20 mg/kg i.p. + LVFX 50 mg/kg, N=5
# [4] = CSF (lateral ventricle microdialysate, unbound), CSF, MK571 group, MK571 20 mg/kg i.p. + LVFX 50 mg/kg, N=5
# [5] = brain ECF (hippocampal microdialysate, unbound), 30 min before LVFX, brain ECF, MK571 group, MK571 20 mg/kg i.p. + LVFX 50 mg/kg, N=5
# [6] = 30 min before LVFX, blood, MK571 group, MK571 20 mg/kg i.p. + LVFX 50 mg/kg, N=5
# [7] = CSF (lateral ventricle microdialysate, unbound), CSF
# [8] = brain ECF (hippocampal microdialysate, unbound), 30 min before LVFX, brain ECF
smiles,measurement,setting,value
"C[C@H]1COc2c(N3CCN(C)CC3)c(F)cc3c(=O)c(C(=O)O)cn1c23 [LVFX, Levofloxacin]","K p,uu,CSF","[1]; AUCu,CSF/AUCu,blood, MK571 group, MK571 20 mg/kg i.p. + LVFX 50 mg/kg, N=5",47.9 ± 2.4 %
same,"K p,uu,ECF","[1]; AUCu,ECF/AUCu,blood, MK571 group, MK571 20 mg/kg i.p. + LVFX 50 mg/kg, N=5",46.0 ± 1.5 %
same,increase of AUC0–180,[1]; CSF,1.26 fold
same,increase of C max,[1]; CSF,1.50 fold
same,"increase in K p,uu,CSF",[1]; [2],1.16 fold
same,"increase in K p,uu,ECF",[1]; [2],1.35 fold
same,increase of AUC0–180,[1]; brain ECF,1.47 fold
same,increase of C max,[1]; brain ECF,1.55 fold
same,Kp,"[1]; CSF (lateral ventricle microdialysate) relative to blood, 30 min before LVFX, AUCu,CSF/AUCu,blood, MK571 group, MK571 20 mg/kg i.p. + LVFX 50 mg/kg, N=5, read-out: K p,uu,CSF",0.479 ± 0.024
same,MRT,[1]; [3],1.26 h
same,half-life,[1]; [3],54.9 ± 7.43 min
same,Tmax,[1]; [4],15 min
same,AUC(0-inf),[1]; [4],5860 ng·h/mL
same,Cmax,[1]; [4],5460 ± 190 ng/mL
same,AUC(0-t),[1]; [4],5290 ng·h/mL
same,Kp,"[1]; brain ECF (hippocampal microdialysate) relative to blood, 30 min before LVFX, AUCu,ECF/AUCu,blood, MK571 group, MK571 20 mg/kg i.p. + LVFX 50 mg/kg, N=5, read-out: K p,uu,ECF",0.46 ± 0.015
same,Tmax,[1]; [5],15 min
same,AUC(0-inf),[1]; [5],5630 ng·h/mL
same,Cmax,[1]; [5],4210 ± 350 ng/mL
same,MRT,[1]; [5],1.35 h
same,half-life,[1]; [5],49 ± 15.1 min
same,AUC(0-t),[1]; [5],5080 ng·h/mL
same,Tmax,[1]; [6],15 min
same,AUC(0-inf),[1]; [6],11700 ng·h/mL
same,Cmax,[1]; [6],10100 ± 310 ng/mL
same,MRT,[1]; [6],1.16 h
same,half-life,[1]; [6],39.5 ± 4.79 min
same,AUC(0-t),[1]; [6],11000 ng·h/mL
same,change in LVFX in the rat brain after Tariquidar,P-glycoprotein (P-gp); Tariquidar 8 mg/kg i.p. + LVFX 50 mg/kg vs control group,no significant change
same,MRT,"P-glycoprotein (P-gp); CSF (lateral ventricle microdialysate, unbound), 30 min before LVFX, CSF",1.33 h
same,Tmax,P-glycoprotein (P-gp); [7],15 min
same,AUC(0-inf),P-glycoprotein (P-gp); [7],4540 ng·h/mL
same,Cmax,P-glycoprotein (P-gp); [7],3590 ± 280 ng/mL
same,half-life,P-glycoprotein (P-gp); [7],50.5 ± 18.6 min
same,AUC(0-t),P-glycoprotein (P-gp); [7],3900 ng·h/mL
same,Kp,"P-glycoprotein (P-gp); CSF / blood (unbound, microdialysate), 30 min before LVFX, AUCu,CSF/AUCu,blood, read-out: K p,uu,CSF",0.37 ± 0.013
same,Tmax,P-glycoprotein (P-gp); [8],15 min
same,AUC(0-inf),P-glycoprotein (P-gp); [8],4580 ng·h/mL
same,Cmax,P-glycoprotein (P-gp); [8],2810 ± 450 ng/mL
same,MRT,P-glycoprotein (P-gp); [8],1.43 h
same,half-life,P-glycoprotein (P-gp); [8],52.9 ± 9.83 min
same,AUC(0-t),P-glycoprotein (P-gp); [8],4100 ng·h/mL
same,Kp,"P-glycoprotein (P-gp); brain ECF / blood, 30 min before LVFX, AUCu,ECF/AUCu,blood, read-out: K p,uu,ECF",0.368 ± 0.035
same,Tmax,"P-glycoprotein (P-gp); 30 min before LVFX, blood",15 min
same,AUC(0-inf),"P-glycoprotein (P-gp); 30 min before LVFX, blood",11800 ng·h/mL
same,Cmax,"P-glycoprotein (P-gp); 30 min before LVFX, blood",10400 ± 760 ng/mL
same,MRT,"P-glycoprotein (P-gp); 30 min before LVFX, blood",1.15 h
same,half-life,"P-glycoprotein (P-gp); 30 min before LVFX, blood",40 ± 6.51 min
same,AUC(0-t),"P-glycoprotein (P-gp); 30 min before LVFX, blood",11100 ng·h/mL
